Measured values reported in ChEMBL document CHEMBL5634194, “Novel Myeloperoxidase Inhibitors for Treating Multiple Diseases” (ACS Med Chem Lett, 2024).

Target: T1, Myeloperoxidase (Homo sapiens, UniProt P05164)
T1 sequence (P05164 whole entry): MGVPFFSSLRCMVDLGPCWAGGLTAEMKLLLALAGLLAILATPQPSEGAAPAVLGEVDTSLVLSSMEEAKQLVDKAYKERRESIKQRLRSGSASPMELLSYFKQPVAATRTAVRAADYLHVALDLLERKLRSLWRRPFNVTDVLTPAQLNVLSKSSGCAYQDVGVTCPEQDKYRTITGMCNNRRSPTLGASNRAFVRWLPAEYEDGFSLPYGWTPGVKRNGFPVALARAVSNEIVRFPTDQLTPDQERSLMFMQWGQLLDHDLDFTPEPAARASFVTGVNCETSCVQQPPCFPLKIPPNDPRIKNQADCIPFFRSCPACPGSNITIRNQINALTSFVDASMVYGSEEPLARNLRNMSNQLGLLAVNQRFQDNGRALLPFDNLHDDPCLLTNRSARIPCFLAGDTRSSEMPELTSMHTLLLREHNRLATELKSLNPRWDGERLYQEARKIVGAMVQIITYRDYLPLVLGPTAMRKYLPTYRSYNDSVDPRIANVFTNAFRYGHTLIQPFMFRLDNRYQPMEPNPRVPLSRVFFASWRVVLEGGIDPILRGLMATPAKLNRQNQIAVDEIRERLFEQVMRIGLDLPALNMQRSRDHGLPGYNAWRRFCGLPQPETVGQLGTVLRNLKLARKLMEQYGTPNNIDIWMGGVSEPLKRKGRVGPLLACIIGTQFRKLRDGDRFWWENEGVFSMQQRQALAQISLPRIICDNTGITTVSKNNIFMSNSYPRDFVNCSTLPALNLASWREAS
Experiment: Inhibition of human MPO using H2O2 as substrate measured after 15 mins by chemiluminescence based assay

IC50 | SMILES
1 nM | O=c1[nH]c(=S)n(Cc2ccccc2[C@@H]2C[C@H](C(F)F)CCN2)c2cc[nH]c12
3 nM | O=c1[nH]c(=S)n(Cc2ccccc2[C@H]2C[C@H](C(F)(F)F)CCN2)c2nc[nH]c12
3 nM | O=c1[nH]c(=S)n(Cc2ccccc2[C@@H]2CC(F)(F)CCN2)c2cc[nH]c12
2 nM | O=c1[nH]c(=S)n(Cc2ccccc2[C@@H]2CCCCN2)c2cc[nH]c12
2 nM | O=c1[nH]c(=S)n(Cc2ccccc2[C@@H]2C[C@H](C(F)(F)F)CCN2)c2nc[nH]c12
2 nM | O=c1[nH]c(=S)n(Cc2ccccc2[C@H]2C[C@@H](C(F)(F)F)CCN2)c2cc[nH]c12
